# Source: US8049063B2 (Zhejiang University, priority 2005, dated 2011)
# Legend:
# [1] = tested on: 8077S calli; assay type: cell-based, rice
# Excerpt: FIG. 6. Bensulfuron-methyl selection results of Cyp81A6-transformed 8077S calli. Left: transgenic; right: non-transgenic control.
# (§1) The full length sequence of candidate gene Cyp81A6 was obtained through lump-sum amplification using LA TaqTM polymerase reagent kit purchased from Takara Company. The long fragment PCR specific primer pairs (forward primer: 5′-[…]-3′ (SEQ ID NO: 40); reverse primer: 5″-[…]-3′ (SEQ ID NO: 41), synthesized by Shanghai Sangon) used in this experiment were designated at a start from 124 bp before and end with 4145 bp after BamHI enzyme digestion site located at 5′-end of Cyp81A6 gene, respectively, according to the DNA sequence publicized by indica rice genome database. According to the designing, these primers have a BstEII enzyme cutting site attached to the 3′-end of the primers, which is convenient for production of cohesive end and ligation during cloning. The amplified fragment with the total size of […] by this pair of primers is consisted of those parts: 124 bp upstream sequence of the BamHI digestion site, 1321 bp promoter sequence, 2321 bp sequence of leader region plus exon plus intron , 272 bp 3′-UTR sequence, followed by 288 bp genome sequence (including the 7 bp BstEII recognition site and 5 bp protection base). […]
# [2] = tested on: Cyp81A6 transgenic 8077S plants; assay: Bentazon test of Cyp81A6 transgenic 8077S seedlings (complementation); assay type: in vivo, rice
# Excerpt: FIG. 7. […] Left: negative control of 8077S; middle: transgenic seedling; right: positive control of W6154S.
# as §1
# [3] = tested on: Cyp81A6 antisense RNA transformed Minghui 63 plants; assay: Bentazon leaf smear test of Cyp81A6 antisense RNA transformed Minghui 63 plants; assay type: in vivo, rice; details: 1250 mg/L smeared on leaves, 3 leaves/plant; antisense transgenic Minghui 63; 36 hours later
# Excerpt: Design anti-sense RNA (RNAi) sequences (see the 1939th to 2439th nucleotide sequence of SEQ ID NO.1) in according with the coding sequence of the cloned rice Cyp81A6 gene. Fuse these antisense RNA (RNAi) sequence to the rice constitutive expression promoter such as Actin1 and then insert them into the binary vectors of pAANT11 (see FIG. 16). Use this vector to transform wild-type rice such as Minghui 63 using the modified procedures of Agrobacterium-mediated transformation method. After that, use the specific primers to carry on the PCR amplification analysis of transgenic TO generation plants for molecular confirmation.
Structure (SMILES),growth of non-transgenic calli on herbicide medium [1],"response of PCR-positive Cyp81A6 transformants to bentazon ([2]; 1250 mg/l, regenerated transgenic 8077S plantlets)",resistance of transgenic line carrying the entire CYP81A6 sequence ([2]; 8077S mutant genome transformed with entire CYP81A6 gene),outcome of treated leaves and plants [3]
"COC(=O)c1ccccc1CS(=O)(=O)NC(=O)Nc1nc(OC)cc(OC)n1 [BSM, bensulfuron-methyl]",stop to grow,,,
CC(C)N1C(=O)c2ccccc2NS1(=O)=O [bentazon],,recovered the resistance,highly resistant,faded and died
